Reference: patent US20230219978A1, “COMPOUND HAVING MACROCYCLIC STRUCTURE AND USE THEREOF” (SCINNOHUB PHARMACEUTICAL CO., LTD, priority 2020, published 2023)

Legend:
Format in all cases: biochemical
RET wt = target: T1, RET wt (Homo sapiens, UniProt P07949); assay: In vitro kinase activity assay (mobility shift assay), RET wild type; conditions: ATP 16 μM, reaction time 60 min
T1 construct: purchased Carna 08-159
Description: (§1) The IC50 (half inhibitory concentration) values of the compounds were used as an indicator to evaluate the inhibitory effect of the compound on RET wild-type, RET mutant, TRKa, SRC, BTK and/or mutated BTK kinase.
(§2) Using the method of Mobility shift assay, the compounds were tested for inhibitory activity against the following kinases: RET wild type, RET mutant, TRKa, SRC, BTK and/or mutated BTK. The initial concentration of the test compound was 1000 nM, 3-fold dilution, 10 concentrations, detected in a well for each concentration.
(§3) 20 mM hydroxyethylpiperazineethanesulfonic acid (Hepes) (pH 7.5) buffer, 10 mM MgCl2, 1 mM ethylene glycol bis(aminoethyl ether)tetraacetic acid (EGTA), 0.02% polyoxyethylene lauryl ether (Brij35), 0.02 mg/ml […] (BSA), 0.1 mM Na3VO4, 2 mM dithiothreitol (DTT), 1% DMSO.
(§4) The test compounds were dissolved in 100% dimethyl sulfoxide (DMSO) system, and prepared as 10 mM for use, and stored in a nitrogen cabinet away from light.
(§5) • (1) Preparing 1× kinase reaction buffer. • (2) Preparation of compound concentration gradient: the initial concentration of the compounds was 1000 nM, which was diluted as 100-fold final concentration of solution in 100% dimethyl sulfoxide (DMSO) in a 384-well plate. The compound was accurately 3-fold diluted with the kinase buffer solution, 10 concentrations in total, and the final concentration was 0.0508 nM. The 100-fold final concentration of solution in 100% dimethyl sulfoxide (DMSO) was obtained by dilution in 384 source plate. The liquid separator Echo 550 was used to transfer 250 nl of 100-fold final concentration of compound to the target 384 well plate. 250 nl of DMSO was added to the positive and negative control wells. • (3) 2.5-fold final concentration of kinase solution was prepared by the 1× kinase buffer. • (4) 10 4, of 2.5-fold final concentration of kinase solution was added to the compound well and the positive control well, respectively; 10 4, of 1× kinase buffer was added to the negative control well. • (5) After centrifuging at 1000 rpm for 30 second, the reaction plate was shaken and mixed, followed by incubation at room temperature for 10 min. • (6) a mixed solution of 25/15-fold final concentration of adenosine triphosphate (ATP) and kinase substrate was prepared by 1× kinase buffer. • (7) The mixed solution (15 μL) of 25/15-fold final concentration of adenosine triphosphate (ATP) and substrate was added to initiate the reaction. • (8) 384-well plate was centrifuged at 1000 rpm for 30 second, shaken and mixed well, and then incubated at room temperature for 30-240 min. • (9) After stopping the kinase reaction, the plate was centrifugated at 1000 rpm for 30 second, shaken and mixed well. • (10)The conversion rate was read with Caliper EZ Reader.
(§6) wherein Conversion%_sample is the conversion rate reading of the sample; Conversion%_min: the mean value of negative control wells, representing the conversion rate reading of wells without enzymes; Conversion%_max: the mean value of positive control wells, representing the conversion rate reading of wells without compound inhibition.
(§7) The log value of concentration was taken as the X axis, and the percentage inhibition rate was taken as the Y axis. Graphpad 6.0 analysis software was used to fit the dose-response curve, so as to obtain the IC50 value of each compound on the enzyme activity

RET G810R = target: T2, RET G810R (Homo sapiens, UniProt P07949, G810R); assay: In vitro kinase activity assay (mobility shift assay), RET G810R; conditions: ATP 201 μM, reaction time 4 h
T2 construct: purchased Proqinase 1724-0000-1
Description: as §1, §2, §3, §4, §5, §6, §7

RET V804M = target: T3, RET V804M (Homo sapiens, UniProt P07949, V804M); assay: In vitro kinase activity assay (mobility shift assay), RET V804M; conditions: ATP 5.4 μM, reaction time 60 min
T3 construct: purchased signalchem R02-12GG
Description: as §1, §2, §3, §4, §5, §6, §7

BTK = target: T4, BTK (Homo sapiens, UniProt Q06187); assay: In vitro kinase activity assay (mobility shift assay), BTK; conditions: ATP 71 μM, reaction time 30 min
T4 construct: purchased Carna 08-180
Description: as §1, §2, §3, §4, §5, §6, §7

TRKa = target: T5, TRKa (Homo sapiens, UniProt P04629); assay: In vitro kinase activity assay (mobility shift assay), TRKa; conditions: ATP 47.8 μM, reaction time 30 min
T5 construct: purchased Carna 08-186
Description: as §1, §2, §3, §4, §5, §6, §7

T2 sequence (P07949 29-1114 G810R): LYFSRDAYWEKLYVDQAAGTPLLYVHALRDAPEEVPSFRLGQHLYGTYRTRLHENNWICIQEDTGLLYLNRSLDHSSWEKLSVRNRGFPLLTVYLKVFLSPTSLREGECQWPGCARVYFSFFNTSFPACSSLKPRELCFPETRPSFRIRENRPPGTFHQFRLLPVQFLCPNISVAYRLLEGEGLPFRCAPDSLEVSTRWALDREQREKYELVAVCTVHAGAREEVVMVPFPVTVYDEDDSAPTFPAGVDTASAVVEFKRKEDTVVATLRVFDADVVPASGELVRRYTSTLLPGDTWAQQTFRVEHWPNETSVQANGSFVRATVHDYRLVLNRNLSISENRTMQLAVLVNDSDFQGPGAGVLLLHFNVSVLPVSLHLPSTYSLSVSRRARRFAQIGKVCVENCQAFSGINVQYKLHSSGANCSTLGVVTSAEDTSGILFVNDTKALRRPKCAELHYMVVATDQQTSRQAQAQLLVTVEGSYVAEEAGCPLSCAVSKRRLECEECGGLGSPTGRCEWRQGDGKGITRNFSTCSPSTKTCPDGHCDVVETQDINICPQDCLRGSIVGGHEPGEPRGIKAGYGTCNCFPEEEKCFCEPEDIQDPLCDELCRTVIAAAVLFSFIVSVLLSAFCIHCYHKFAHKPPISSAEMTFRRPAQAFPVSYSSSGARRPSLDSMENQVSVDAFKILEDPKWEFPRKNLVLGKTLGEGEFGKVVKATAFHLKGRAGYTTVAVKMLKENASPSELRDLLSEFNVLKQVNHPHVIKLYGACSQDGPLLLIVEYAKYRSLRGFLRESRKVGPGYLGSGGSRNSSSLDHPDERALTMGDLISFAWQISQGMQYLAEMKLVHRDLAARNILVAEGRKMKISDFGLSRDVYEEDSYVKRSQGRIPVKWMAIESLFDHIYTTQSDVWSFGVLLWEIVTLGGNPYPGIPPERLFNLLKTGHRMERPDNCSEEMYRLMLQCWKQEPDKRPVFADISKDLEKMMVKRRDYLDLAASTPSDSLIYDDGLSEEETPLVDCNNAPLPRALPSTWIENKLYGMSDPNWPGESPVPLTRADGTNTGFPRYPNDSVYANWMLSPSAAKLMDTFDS
T3 sequence (P07949 29-1114 V804M): as the sequence (P07949 29-1114 G810R) above, with V776M, R782G counted along it
T1 sequence (P07949 29-1114): as the sequence (P07949 29-1114 G810R) above, with R782G counted along it
T5 sequence (P04629 33-796): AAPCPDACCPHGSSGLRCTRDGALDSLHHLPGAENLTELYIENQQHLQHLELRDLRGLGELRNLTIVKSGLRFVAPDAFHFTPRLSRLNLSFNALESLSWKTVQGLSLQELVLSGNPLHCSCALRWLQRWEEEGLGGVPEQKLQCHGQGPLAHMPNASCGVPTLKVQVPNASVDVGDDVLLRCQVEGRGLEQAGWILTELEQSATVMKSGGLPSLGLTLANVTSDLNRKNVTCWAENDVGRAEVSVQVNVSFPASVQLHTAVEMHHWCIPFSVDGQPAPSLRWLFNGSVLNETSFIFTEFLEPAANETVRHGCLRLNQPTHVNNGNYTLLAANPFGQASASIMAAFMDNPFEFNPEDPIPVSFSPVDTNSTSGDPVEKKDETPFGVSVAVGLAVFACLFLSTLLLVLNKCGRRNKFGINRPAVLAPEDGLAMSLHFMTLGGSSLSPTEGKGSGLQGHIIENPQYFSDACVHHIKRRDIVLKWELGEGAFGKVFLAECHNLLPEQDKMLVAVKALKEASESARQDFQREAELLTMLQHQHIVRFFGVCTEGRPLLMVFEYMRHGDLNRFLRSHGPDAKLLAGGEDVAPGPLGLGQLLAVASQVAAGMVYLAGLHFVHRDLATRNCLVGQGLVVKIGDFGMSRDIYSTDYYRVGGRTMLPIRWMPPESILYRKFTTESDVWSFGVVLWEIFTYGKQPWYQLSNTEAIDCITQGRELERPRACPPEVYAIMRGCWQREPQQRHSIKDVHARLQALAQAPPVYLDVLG
T4 sequence (Q06187 whole entry): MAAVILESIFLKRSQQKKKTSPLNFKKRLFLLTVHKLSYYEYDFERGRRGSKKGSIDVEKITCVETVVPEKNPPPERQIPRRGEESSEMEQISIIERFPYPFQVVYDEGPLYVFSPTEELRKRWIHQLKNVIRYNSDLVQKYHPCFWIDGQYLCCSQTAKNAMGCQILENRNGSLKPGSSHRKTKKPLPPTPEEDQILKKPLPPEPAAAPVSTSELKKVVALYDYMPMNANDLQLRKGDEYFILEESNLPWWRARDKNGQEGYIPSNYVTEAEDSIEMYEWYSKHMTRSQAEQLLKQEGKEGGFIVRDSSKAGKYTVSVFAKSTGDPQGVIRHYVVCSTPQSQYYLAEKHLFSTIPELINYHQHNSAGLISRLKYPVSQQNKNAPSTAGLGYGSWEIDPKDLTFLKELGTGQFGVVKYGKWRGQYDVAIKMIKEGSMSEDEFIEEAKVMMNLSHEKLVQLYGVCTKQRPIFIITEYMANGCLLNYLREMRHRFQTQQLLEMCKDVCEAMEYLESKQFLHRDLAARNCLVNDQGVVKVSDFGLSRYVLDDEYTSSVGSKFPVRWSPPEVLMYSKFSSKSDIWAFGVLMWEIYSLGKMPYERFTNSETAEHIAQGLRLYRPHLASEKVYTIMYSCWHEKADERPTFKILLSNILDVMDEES

IC50 (RET wt) [nM]	IC50 (RET G810R) [nM]	IC50 (RET V804M) [nM]	IC50 (BTK) [nM]	IC50 (TRKa) [nM]	SMILES
13	> 10000	> 10000	2070		C[C@H]1CNC(=O)c2cnn3cc(C4=CCCC4)c(nc23)NCc2cc(F)cnc2O1 [Compound 41, (S, 1^3E, 1^4E)-1^6-(cyclopent-1-en-1-yl)-4^5-fluoro-6-methyl-5-oxa-2,8-diaza-1(5,3)-pyrazolo[1,5-a]pyrimidin-4(3,2)-pyridinacyclononaphan-9-one]
127				> 10000	C[C@H]1CNC(=O)c2cnn3cc(-c4ccc(C(F)(F)F)cc4)c(nc23)NCc2cc(F)cnc2O1 [Compound 14, (S, 1^3E, 1^4E)-1^6-(4-trifluoromethylphenyl)-4^5-fluoro-6-methyl-5-oxa-2,8-diaza-1(5,3)-pyrazolo[1,5-a]pyrimidina-4(3,2)-pyridinacyclononaphan-9-one]
> 1000	> 1000		> 1000		C[C@H]1CNC(=O)c2cnn3cc(-c4ccc5[nH]c(=O)[nH]c5c4)c(nc23)NCc2cc(F)cnc2O1 [Compound 38, (S, 1^3E, 1^4E)-4^5-fluoro-6-methyl-1^6-(2-oxo-2,3-dihydro-1H-benzo[d]imidazol-5-yl)-5-oxo-2,8-diaza-1(5,3)-pyrazolo[1,5-a]pyrimidin-4(3,2)-pyridinacyclononaphan-9-one]
21				304	C[C@H]1CNC(=O)c2cnn3cc(-c4c(F)cccc4F)c(nc23)NCc2cc(F)cnc2O1 [Compound 22, (S, 1^3E, 1^4E)-1^6-(2,6-difluorophenyl)-4^5-fluoro-6-methyl-5-oxa-2,8-diaza-1(5,3)-pyrazolo[1,5-a]pyrimidin-4(3,2)-pyridinacyclononaphan-9-one]
68	> 10000	> 10000	> 10000		COC(=O)NC1CC=C(c2cn3ncc4c3nc2NCc2cc(F)cnc2O[C@@H](C)CNC4=O)CC1 (stereo partly drawn) [Compound 43, methyl (4((S, 1^3E, 1^4E)-4^5-fluoro-6-methyl-9-oxo-5-oxa-2,8-diaza-1(5,3)-pyrazolo[1,5-a]pyrimidin-4(3,2)-pyridinacyclononaphan-1^6-yl)cyclohex-3-en-1-yl)carbamate]
5280				46	C[C@H]1CNC(=O)c2cnn3cc(O)c(nc23)NCc2cc(F)cnc2O1 [Compound 2, (S, 1^3E, 1^4E)-4^5-fluoro-6-methyl-1^6-hydroxy-5-oxa-2,8-diaza-1(5,3)-pyrazolo[1,5-a]pyrimidina-4(3,2)-pyridinacyclononaphan-9-one]
3.5	361		3.6		C[C@H]1CNC(=O)c2cnn3c(N)c(-c4ccc(N)cc4)c(nc23)NCc2cc(F)cnc2O1 [Example 60, (S, 1^3E, 1^4E)-1^7-amino-1^6-(4-aminophenyl)-4^5-fluoro-6-methyl-5-oxa-2,8-diaza-1(5,3)-pyrazolino[1,5-a] pyrimidin-4(3,2)-pyridinacyclononaphan-9-one]
0.6	15	0.99			CCNC(=O)Nc1ccc(-c2c3nc4c(cnn4c2N)C(=O)NC[C@H](C)Oc2ncc(F)cc2CN3)cc1 [Example 80, 1-(4-((S, 1^3E, 1^4E)-1^7-amino-4^5-fluoro-6-methyl-9-oxo-5-oxa-2,8-diaza-1(5,3)-pyrazolo[1,5-a]pyrimidin-4(3,2)-pyridinacyclononaphan-1^6-yl)-phenyl)-3-ethylurea]
15	> 1000	551			CCOC(=O)Nc1c(F)cc(-c2c3nc4c(cnn4c2N)C(=O)NC[C@H](C)Oc2ncc(F)cc2CN3)cc1F [Example 70, (S, 1^3E, 1^4E)-1^7-amino-4^5-fluoro-6-methyl-1^6-(6^2′^6-difluoro-6^1-(ethoxycarbonyl)amino-4-yl)phenyl-5-oxa-2,8-diaza-1(5,3)-pyrazolo[1,5-a]pyrimidinyl-4(3,2)-pyridinacyclononaphan-9-one]
